Laboratory results: ChEMBL document CHEMBL5543148, “Discovery of First-in-Class PROTAC Degraders of SARS-CoV-2 Main Protease” (J Med Chem, 2024)

Columns and labels:
SARS-CoV-2 [1] = test: Antiviral activity against SARS-CoV-2 harboring recombinant live-attenuated delta3678 mGFP infected in human A549-ACE2 cells measured after 48 hrs by RT-PCR analysis; type: functional, organism-based; conditions: Severe acute respiratory syndrome coronavirus 2, A549-ACE2, 48 h
SARS-CoV-2 [2] = test: Antiviral activity against SARS-CoV-2 harboring NSP5 E166A mutant infected in human A549-ACE2 cells measured after 48 hrs by RT-PCR analysis; type: functional, organism-based, Severe acute respiratory syndrome coronavirus 2

C[C@@H](OC(C)(C)C)[C@H](NC(=O)OCc1cccc(OCCCCCCOc2cccc3c2C(=O)N(C2CCC(=O)NC2=O)C3=O)c1)C(=O)N[C@@H](CC1CCCCC1)C(=O)N[C@H](C=O)C[C@@H]1CCNC1=O (some centres not stated)
EC50 (SARS-CoV-2 [1]): 2.2 µM | EC50 (SARS-CoV-2 [2]): 0.46 µM
